According to US3937809A, “Addition compound of a nucleotide and an amino acid and the use thereof in protection against actinic radiation” (priority 1974, dated 1976):
Values after ≈ are worked out from the molar mass of the structure shown.

Tests used:
[1] = UV absorption in % at 300, 280 and 240 nm (Table 2); assay type: physicochemical
Source text: The following Table illustrates the ultraviolet absorption characteristics at wave lengths of 300 nm, 280 nm, and 240 nm for the compounds of the invention, as well as other known compounds which have been used in the past as sun protective agents.

[2] = Solubility in water at 20°C (Table 3); assay type: physicochemical
[3] = background statement; cited from earlier work
[4] = UV spectrum and extinction coefficients in water (Table I); assay type: physicochemical
pH of solution (Table I) = assay type: physicochemical; conditions: c=0.005
Source text: The following Table 1 lists additional compounds of the invention along with their physical properties.
Molecular Brutto N(%) pH UV- Extinction coefficients

Compound | UV Absorption in %, 240 nm [1] [%] | UV Absorption in %, 280 nm [1] [%] | UV Absorption in %, 300 nm [1] [%] | also measured
Nc1ccc(C(=O)O)c(O)c1 [4-Aminosalicylic acid] | 98.5 | 99 | 99 | 
Nc1cc(C(=O)O)c(O)c(S(=O)(=O)O)c1 [5-Amino-3-sulfosalicylic acid-Na2] | 87 | 0 | 26 | 
Nc1ncnc2nc[nH]c12 [Adenine] | 100 | 52 | 14 | solubility [2]: 840 µg/mL (≈ 6.22 mM)
Nc1ncnc2c1ncn2[C@@H]1O[C@H](COP(=O)(O)O)[C@@H](O)[C@H]1O [Adenosine-5'-monophosphoric acid-Na2] | 80 | 8 | 6 | 
Nc1ccccc1C(=O)O [Anthranilic acid(o-Aminobenzoic acid), o-Aminobenzoic acid] | 99 | 48 | 84 | 
Nc1ccn([C@@H]2O[C@H](COP(=O)(O)O)[C@@H](O)[C@H]2O)c(=O)n1 [Cytidine-5'-monophosphoric acid-Na2] | 86 | 88 | 3 | 
Nc1cc[nH]c(=O)n1 [Cytosine] | 100 | 98 | 95 | solubility [2]: 4000 µg/mL (≈ 36 mM)
Nc1nc2nc[nH]c2c(=O)[nH]1 [Guanine] | 73 | 62 | 11 | 
O=c1[nH]cnc2nc[nH]c12 [Hypoxanthine] | 100 | 65 | 6 | 
O=C(O)c1ccccc1O [Salicylic acid] | 98 | 74 | 94 | 
O=c1cc[nH]c(=O)[nH]1 [Uracil] | 90 | 45 | 42 | solubility [2]: 2000 µg/mL (≈ 17.8 mM)
O=c1ccn([C@@H]2O[C@H](COP(=O)(O)O)[C@@H](O)[C@H]2O)c(=O)[nH]1 [Uridine-5'-monophosphoric acid-Na2] | 70 | 55 | 0 | 
Nc1ccc(C(=O)O)cc1 [p-Aminobenzoic acid] | 91 | 100 | 100 | ultraviolet absorption of known agents (in words) [3]: insufficient absorption in the ultraviolet portion of the spectrum
Adenosine-5'-mono-phosphoric acid-(Na-tryptophane)2 [No. 5] |  |  |  | UV-spectrum λmax [4]: 220 mμ; mol.Ext.coeff. ε ([4]; c=0.005, d-l): 320000±4%; Extinction coefficients E250/E260 ([4]; c=0.005, d-l, ratio): 0.76; Extinction coefficients E280/E260 ([4]; c=0.005, d-l, ratio): 0.67; Extinction coefficients E290/E260 ([4]; c=0.005, d-l, ratio): 0.33; pH (pH of solution (Table I)): 7.0
Cytidine-5'-monophosphoric acid-(o-aminobenzoic acid)2 Na2 | 98 | 79 | 55.5 | 
